Source: BindingDB's records for doi:10.1016/j.bioorg.2014.05.010 (Ain Shams University, 2014)

What follows are compounds tested against Vascular endothelial growth factor receptor 2 (Homo sapiens, UniProt P35968) (assay: In vitro Inhibition Assay). Conditions: 30 °C.
Procedure: Assays are performed for 15 min at 30 °C, with 50 µM of P33-ATP in a final volume of 25 µL. The assays are terminated by spotting 20 µL of the reaction mixture onto a phosphocellulose P81 plate. The P81 plate was washed 3 times for ~15 min each in a 1% phosphoric acid solution to remove excess unreacted P33-ATP.

Sequence of Vascular endothelial growth factor receptor 2 (P35968 whole entry): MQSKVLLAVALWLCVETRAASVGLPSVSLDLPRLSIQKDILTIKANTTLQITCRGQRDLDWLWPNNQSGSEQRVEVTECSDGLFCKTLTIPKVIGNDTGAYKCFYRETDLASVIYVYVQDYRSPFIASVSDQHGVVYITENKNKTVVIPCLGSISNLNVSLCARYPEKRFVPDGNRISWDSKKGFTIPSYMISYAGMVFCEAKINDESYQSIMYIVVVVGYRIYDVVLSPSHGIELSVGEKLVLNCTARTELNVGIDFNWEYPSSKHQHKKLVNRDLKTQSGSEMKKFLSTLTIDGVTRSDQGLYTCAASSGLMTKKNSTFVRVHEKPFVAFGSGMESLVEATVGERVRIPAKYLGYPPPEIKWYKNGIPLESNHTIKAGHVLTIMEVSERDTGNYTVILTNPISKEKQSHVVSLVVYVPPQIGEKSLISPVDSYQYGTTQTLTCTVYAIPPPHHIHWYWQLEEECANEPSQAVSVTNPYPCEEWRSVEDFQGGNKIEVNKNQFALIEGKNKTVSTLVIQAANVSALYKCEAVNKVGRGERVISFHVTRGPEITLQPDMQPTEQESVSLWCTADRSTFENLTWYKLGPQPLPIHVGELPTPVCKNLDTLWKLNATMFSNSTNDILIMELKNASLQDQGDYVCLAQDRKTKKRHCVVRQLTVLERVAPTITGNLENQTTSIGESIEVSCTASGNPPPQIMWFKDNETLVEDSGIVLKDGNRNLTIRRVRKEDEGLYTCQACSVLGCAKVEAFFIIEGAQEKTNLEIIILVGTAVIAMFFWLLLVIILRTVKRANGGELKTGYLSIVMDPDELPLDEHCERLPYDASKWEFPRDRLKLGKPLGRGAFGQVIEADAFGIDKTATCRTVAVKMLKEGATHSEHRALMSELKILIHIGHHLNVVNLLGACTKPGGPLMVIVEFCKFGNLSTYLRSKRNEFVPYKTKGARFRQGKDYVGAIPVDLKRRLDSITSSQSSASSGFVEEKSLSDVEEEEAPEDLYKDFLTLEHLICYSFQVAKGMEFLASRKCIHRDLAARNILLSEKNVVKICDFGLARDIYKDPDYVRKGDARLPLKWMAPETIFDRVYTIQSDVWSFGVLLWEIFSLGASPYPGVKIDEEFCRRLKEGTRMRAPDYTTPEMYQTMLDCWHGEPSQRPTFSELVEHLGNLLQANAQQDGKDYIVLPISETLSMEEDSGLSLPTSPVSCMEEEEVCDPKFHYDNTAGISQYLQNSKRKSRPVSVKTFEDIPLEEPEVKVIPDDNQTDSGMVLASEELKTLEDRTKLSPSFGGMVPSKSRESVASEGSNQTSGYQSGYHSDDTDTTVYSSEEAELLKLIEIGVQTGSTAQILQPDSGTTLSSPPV

Row | Compound | IC50 [µM]
1 | O=C(Nc1ccc(Nc2cnc3cc([N+](=O)[O-])ccc3n2)cc1)Nc1cccc(Cl)c1 [1-(3-Chlorophenyl)-3-(4-((6-nitroquinoxalin-2-yl)amino)-phenyl)urea (XXIb)] | 85.4
2 | COc1ccc(Nc2nc3ccc(NC(=O)Nc4ccccc4)cc3[nH]c2=O)cc1 [1-(2-((4-Methoxyphenyl)amino)-3-oxo-3,4 dihydroquinoxalin-6-yl)-3-phenylurea (VIIa)] | 10.3
3 | O=C(Nc1ccccc1)Nc1ccc(Nc2cnc3cc([N+](=O)[O-])ccc3n2)cc1 [1-(4-((6-Nitroquinoxalin-2-yl)amino)phenyl)-3-phenylurea (XXIa)] | 268
4 | COc1ccc(Nc2nc3ccc(NC(=O)c4ccccc4C(=O)O)cc3[nH]c2=O)cc1 [2-((2-((4-Methoxyphenyl)amino)-3-oxo-3,4-dihydroquinoxalin-6-yl)carbamoyl)benzoic acid (IX)] | 61.8
5 | COc1ccc(Nc2cnc3cc(NC(=O)Nc4cccc(C)c4)ccc3n2)cc1 [1-(2-((4-Methoxyphenyl)amino)quinoxalin-6-yl)-3-(m-tolyl) urea (XVIc)] | 210
